{"source": "ChEMBL document CHEMBL5712891", "about": "“Inhibition of BET bromodomain-dependent XIAP and FLIP expression sensitizes KRAS-mutated NSCLC to pro-apoptotic agents” (Cell Death Dis, 2016)", "key": {"DV-90 [1]": {"tested_on": "DV-90", "experiment": "Induction of apoptosis in human DV-90 cells assessed as necrotic cells at 2.5 uM for 24 hrs by annexin V-PI staining based flow cytometric analysis (reference value: 8.4%)", "type": "functional"}, "DV-90 [2]": {"tested_on": "DV-90", "experiment": "Induction of cell cycle arrest in human DV-90 cells assessed as accumulation of cells at G2/M phase at 0.1 uM for 24 hrs by Click-iT EdU Alexa Fluor 647 flow cytometric assay kit analysis (reference value: 21%)", "type": "functional"}, "DV-90 [3]": {"tested_on": "DV-90", "experiment": "Induction of apoptosis in human DV-90 cells assessed as viable cells at 0.5 uM for 48 hrs by annexin V-PI staining based flow cytometric analysis (reference value: 81.9%)", "conditions": "DV-90, 48 h"}, "A549 [4]": {"tested_on": "A549", "experiment": "Induction of apoptosis in human A549 cells assessed as late apoptotic cells at 2.5 uM for 24 hrs by annexin V-PI staining based flow cytometric analysis (reference value: 1.2%)", "type": "functional"}, "DV-90 [5]": {"tested_on": "DV-90", "experiment": "Induction of cell cycle arrest in human DV-90 cells assessed as accumulation of cells at G2/M phase at 0.5 uM for 24 hrs by Click-iT EdU Alexa Fluor 647 flow cytometric assay kit analysis (reference value: 21%)", "type": "functional"}, "NCI-H460 [6]": {"tested_on": "NCI-H460", "experiment": "Induction of cell cycle arrest in human NCI-H460 cells assessed as accumulation of cells at G0/G1 phase at 0.1 uM for 24 hrs by Click-iT EdU Alexa Fluor 647 flow cytometric assay kit analysis (reference value: 45%)", "type": "functional"}, "NCI-H1373 [7]": {"tested_on": "NCI-H1373", "experiment": "Induction of cell cycle arrest in human NCI-H1373 cells assessed as accumulation of cells at G0/G1 phase at 1 uM for 24 hrs by Click-iT EdU Alexa Fluor 647 flow cytometric assay kit analysis (reference value: 45%)", "type": "functional"}, "NCI-H460 [8]": {"tested_on": "NCI-H460", "experiment": "Induction of cell cycle arrest in human NCI-H460 cells assessed as accumulation of cells at S phase at 0.25 uM for 24 hrs by Click-iT EdU Alexa Fluor 647 flow cytometric assay kit analysis (reference value: 54%)", "type": "functional"}, "NCI-H460 [9]": {"tested_on": "NCI-H460", "experiment": "Downregulation of XIAP mRNA expression level in human NCI-H460 cells at 0.1 to 1 uM for 24 hrs by qRT-PCR analysis", "type": "functional, cell-based", "conditions": "dose 0.1-1 µM"}, "A549 [10]": {"tested_on": "A549", "experiment": "Induction of apoptosis in human A549 cells assessed as viable cells at 2.5 uM for 24 hrs by annexin V-PI staining based flow cytometric analysis (reference value: 96%)", "type": "functional", "conditions": "read-out: Activity"}, "NCI-H1373 [11]": {"tested_on": "NCI-H1373", "experiment": "Induction of apoptosis in human NCI-H1373 cells assessed as viable cells at 2.5 uM for 24 hrs by annexin V-PI staining based flow cytometric analysis (reference value: 77.7%)", "type": "functional", "conditions": "read-out: Activity"}, "NCI-H1373 [12]": {"tested_on": "NCI-H1373", "experiment": "Induction of cell cycle arrest in human NCI-H1373 cells assessed as accumulation of cells at G2/M phase at 0.1 uM for 24 hrs by Click-iT EdU Alexa Fluor 647 flow cytometric assay kit analysis (reference value: 13%)", "type": "functional"}, "NCI-H23": {"tested_on": "NCI-H23", "experiment": "Downregulation of XIAP mRNA expression level in human NCI-H23 cells at 0.1 to 1 uM for 24 hrs by qRT-PCR analysis", "type": "functional, cell-based", "conditions": "dose 0.1-1 µM"}, "NCI-H1373 [13]": {"tested_on": "NCI-H1373", "experiment": "Induction of cell cycle arrest in human NCI-H1373 cells assessed as accumulation of cells at G0/G1 phase at 0.25 uM for 24 hrs by Click-iT EdU Alexa Fluor 647 flow cytometric assay kit analysis (reference value: 40%)", "type": "functional"}, "A549 [14]": {"tested_on": "A549", "experiment": "Induction of apoptosis in human A549 cells assessed as viable cells at 0.5 uM for 24 hrs by annexin V-PI staining based flow cytometric analysis (reference value: 96%)", "type": "functional", "conditions": "read-out: Activity"}, "NCI-H1373 [15]": {"tested_on": "NCI-H1373", "experiment": "Induction of TRAIL dependent apoptosis in human NCI-H1373 cells assessed as early apoptotic cells at 1 uM in presence of […] by annexin V-PI staining based flow cytometric analysis (reference value: 0.5%)", "type": "functional"}, "NCI-H1373 [16]": {"tested_on": "NCI-H1373", "experiment": "Antitumor activity against human NCI-H1373 cells xenografted in SCID mouse assessed as tumor weight ratio to control at 50 mg/kg, ip measured on after 15 days relative to control", "type": "functional", "conditions": "time 15 day"}, "NCI-H1373 [17]": {"tested_on": "NCI-H1373", "experiment": "Induction of apoptosis in human NCI-H1373 cells assessed as late apoptotic cells at 0.5 uM for 24 hrs by annexin V-PI staining based flow cytometric analysis (reference value: 16.2%)", "type": "functional"}, "A549 [18]": {"tested_on": "A549", "experiment": "Induction of apoptosis in human A549 cells assessed as late apoptotic cells at 1 uM in presenc of cisplatin by annexin V-PI based flow cytometric analysis (reference value: 2.5%)", "type": "functional"}, "NCI-H1792": {"tested_on": "NCI-H1792", "experiment": "Downregulation of c-MYC protein expression level in human NCI-H1792 cells at 1 uM for 24 hrs by […] analysis", "type": "functional, cell-based"}, "NCI-H460 [19]": {"tested_on": "NCI-H460", "experiment": "Induction of apoptosis in human NCI-H460 cells assessed as necrotic cells at 2.5 uM for 24 hrs by annexin V-PI staining based flow cytometric analysis (reference value: 2.7%)", "type": "functional"}, "NCI-H1373 [20]": {"tested_on": "NCI-H1373", "experiment": "Induction of cell cycle arrest in human NCI-H1373 cells assessed as accumulation of cells at G0/G1 phase at 0.5 uM for 24 hrs by Click-iT EdU Alexa Fluor 647 flow cytometric assay kit analysis (reference value: 40%)", "type": "functional"}, "NCI-H1373 [21]": {"tested_on": "NCI-H1373", "experiment": "Induction of cell cycle arrest in human NCI-H1373 cells assessed as accumulation of cells at S phase at 0.25 uM for 24 hrs by Click-iT EdU Alexa Fluor 647 flow cytometric assay kit analysis (reference value: 45%)", "type": "functional"}, "A549 [22]": {"tested_on": "A549", "experiment": "Downregulation of c-MYC mRNA expression level in human A549 cells at 0.1 to 1 uM for 24 hrs by qRT-PCR analysis", "type": "functional, cell-based", "conditions": "dose 0.1-1 µM"}, "A549 [23]": {"tested_on": "A549", "experiment": "Antiproliferative activity against human A549 cells at 500 to 2500 nM in presence of TNF by cell titre glo assay", "type": "functional, cell-based", "conditions": "dose 500-2500 nM"}, "SK-LU-1": {"tested_on": "SK-LU-1", "experiment": "Downregulation of XIAP mRNA expression level in human SK-LU-1 cells at 0.1 to 1 uM for 24 hrs by qRT-PCR analysis", "type": "functional, cell-based", "conditions": "dose 0.1-1 µM"}, "NCI-H1373 [24]": {"tested_on": "NCI-H1373", "experiment": "Induction of TRAIL dependent apoptosis in human NCI-H1373 cells by annexin V-PI staining based flow cytometric analysis", "type": "functional, cell-based"}, "NCI-H460 [25]": {"tested_on": "NCI-H460", "experiment": "Induction of apoptosis in human NCI-H460 cells assessed as early apoptotic cells at 2.5 uM for 24 hrs by annexin V-PI staining based flow cytometric analysis (reference value: 0.2%)", "type": "functional"}, "NCI-H1373 [26]": {"tested_on": "NCI-H1373", "experiment": "Induction of cell cycle arrest in human NCI-H1373 cells assessed as accumulation of cells at S phase at 1 uM for 24 hrs by Click-iT EdU Alexa Fluor 647 flow cytometric assay kit analysis (reference value: 45%)", "type": "functional"}, "DV-90 [27]": {"tested_on": "DV-90", "experiment": "Downregulation of C-MYC mRNA expression level in human DV-90 cells at 0.1 to 1 uM for 24 hrs by qRT-PCR analysis", "type": "functional, cell-based", "conditions": "dose 0.1-1 µM"}, "A549 [28]": {"tested_on": "A549", "experiment": "Induction of apoptosis in human A549 cells assessed as early apoptotic cells at 2.5 uM for 24 hrs by annexin V-PI staining based flow cytometric analysis (reference value: 0.4%)", "type": "functional"}, "NCI-H1373 [29]": {"tested_on": "NCI-H1373", "experiment": "Induction of TRAIL dependent apoptosis in human NCI-H1373 cells assessed as late apoptotic cells at 1 uM in presence of […] by annexin V-PI staining based flow cytometric analysis (reference value: 8.3%)", "type": "functional"}}, "note": "The source made the active and inactive calls. The calls are words filed in the database; no cut-off is given here."}
{"smiles": "Cc1sc2c(c1C)C(c1ccc(Cl)cc1)=N[C@@H](CC(=O)Nc1ccc(O)cc1)c1nnc(C)n1-2", "note": "[BIRABRESIB]", "values": [{"measurement": "Activity", "setting": "DV-90 [1]", "value": 33.7, "unit": "%"}, {"measurement": "Activity", "setting": "DV-90 [2]", "value": 29, "unit": "%"}, {"measurement": "viability at 0.5 µM", "setting": "DV-90 [3]", "value": 57.6, "unit": "%"}, {"measurement": "Activity", "setting": "A549 [4]", "value": 1.5, "unit": "%"}, {"measurement": "Activity", "setting": "DV-90 [5]", "value": 25, "unit": "%"}]}
{"smiles": "CCNC(=O)C[C@@H]1N=C(c2ccc(Cl)cc2)c2cc(OC)ccc2-n2c(C)nnc21", "note": "[MOLIBRESIB]", "values": [{"measurement": "Activity", "setting": "NCI-H460 [6]", "value": 45, "unit": "%"}, {"measurement": "Activity", "setting": "NCI-H1373 [7]", "value": 50, "unit": "%"}, {"measurement": "Activity", "setting": "NCI-H460 [8]", "value": 56, "unit": "%"}]}
{"smiles": "Cc1sc2c(c1C)C(c1ccc(Cl)cc1)=N[C@@H](CC(=O)OC(C)(C)C)c1nnc(C)n1-2", "values": [{"measurement": "Activity", "setting": "NCI-H460 [9]", "value": "Active"}, {"measurement": "viability at 2.5 µM", "setting": "A549 [10]", "value": 97, "unit": "%"}, {"measurement": "viability at 2.5 µM", "setting": "NCI-H1373 [11]", "value": 58, "unit": "%"}, {"measurement": "Activity", "setting": "NCI-H1373 [12]", "value": 17, "unit": "%"}, {"measurement": "Activity", "setting": "NCI-H23", "value": "Active"}, {"measurement": "Activity", "setting": "NCI-H1373 [13]", "value": 60, "unit": "%"}, {"measurement": "viability at 0.5 µM", "setting": "A549 [14]", "value": 97.2, "unit": "%"}, {"measurement": "Activity", "setting": "NCI-H1373 [15]", "value": 6.1, "unit": "%"}, {"measurement": "T/C", "setting": "NCI-H1373 [16]", "value": 32, "unit": "%"}, {"measurement": "Activity", "setting": "NCI-H1373 [17]", "value": 20.2, "unit": "%"}, {"measurement": "Activity", "setting": "A549 [18]", "value": 28.5, "unit": "%"}, {"measurement": "Activity", "setting": "NCI-H1792", "value": "Active"}, {"measurement": "Activity", "setting": "NCI-H460 [19]", "value": 3.7, "unit": "%"}, {"measurement": "Activity", "setting": "NCI-H1373 [20]", "value": 63, "unit": "%"}, {"measurement": "Activity", "setting": "NCI-H1373 [21]", "value": 21, "unit": "%"}, {"measurement": "Activity", "setting": "A549 [22]", "value": "Active"}, {"measurement": "Activity", "setting": "A549 [23]", "value": "Active"}, {"measurement": "Activity", "setting": "SK-LU-1", "value": "Active"}, {"measurement": "Activity", "setting": "NCI-H1373 [24]", "value": "Active"}, {"measurement": "Activity", "setting": "NCI-H460 [25]", "value": 0.4, "unit": "%"}, {"measurement": "Activity", "setting": "NCI-H1373 [26]", "value": 7, "unit": "%"}, {"measurement": "Activity", "setting": "DV-90 [27]", "value": "Active"}, {"measurement": "Activity", "setting": "A549 [28]", "value": 0.2, "unit": "%"}, {"measurement": "Activity", "setting": "NCI-H1373 [29]", "value": 35.9, "unit": "%"}]}
